According to ChEMBL document CHEMBL5728681, “Macrocyclic compounds as TRK kinase inhibitors and uses thereof” (2021):

Target: High affinity nerve growth factor receptor (Homo sapiens, UniProt P04629)
Experiment: HotSpot Assay: The HotSpot assay platform was used to measure kinase/inhibitor interactions as described in Anastassiadis et al., Nat Biotechnol. 29:1039-45, 2011. In brief, for each reaction, kinase and substrate were mixed in a buffer containing 20 mM HEPES (pH 7.5), 10 mM MgCl2, 1 mM EGTA, 0.02% Brij35, 0.02 mg/mL BSA, 0.1 mM Na3VO4, 2 mM DTT, and 1% DMSO. Compounds were then added to each reaction mixture. After a 20-min incubation, ATP (Sigma-Aldrich) and [γ-33P] ATP (PerkinElmer) were added at a final total concentration of 100 μM. Reactions were carried out at room temperature for 2 h and spotted onto P81 ion exchange cellulose chromatography paper (Whatman). Filter paper was washed in 0.75% phosphoric acid to remove unincorporated ATP. The percent remaining kinase activity relative to a vehicle-containing (DMSO) kinase reaction was calculated for each kinase/inhibitor pair.

Sequence of High affinity nerve growth factor receptor (P04629 whole entry): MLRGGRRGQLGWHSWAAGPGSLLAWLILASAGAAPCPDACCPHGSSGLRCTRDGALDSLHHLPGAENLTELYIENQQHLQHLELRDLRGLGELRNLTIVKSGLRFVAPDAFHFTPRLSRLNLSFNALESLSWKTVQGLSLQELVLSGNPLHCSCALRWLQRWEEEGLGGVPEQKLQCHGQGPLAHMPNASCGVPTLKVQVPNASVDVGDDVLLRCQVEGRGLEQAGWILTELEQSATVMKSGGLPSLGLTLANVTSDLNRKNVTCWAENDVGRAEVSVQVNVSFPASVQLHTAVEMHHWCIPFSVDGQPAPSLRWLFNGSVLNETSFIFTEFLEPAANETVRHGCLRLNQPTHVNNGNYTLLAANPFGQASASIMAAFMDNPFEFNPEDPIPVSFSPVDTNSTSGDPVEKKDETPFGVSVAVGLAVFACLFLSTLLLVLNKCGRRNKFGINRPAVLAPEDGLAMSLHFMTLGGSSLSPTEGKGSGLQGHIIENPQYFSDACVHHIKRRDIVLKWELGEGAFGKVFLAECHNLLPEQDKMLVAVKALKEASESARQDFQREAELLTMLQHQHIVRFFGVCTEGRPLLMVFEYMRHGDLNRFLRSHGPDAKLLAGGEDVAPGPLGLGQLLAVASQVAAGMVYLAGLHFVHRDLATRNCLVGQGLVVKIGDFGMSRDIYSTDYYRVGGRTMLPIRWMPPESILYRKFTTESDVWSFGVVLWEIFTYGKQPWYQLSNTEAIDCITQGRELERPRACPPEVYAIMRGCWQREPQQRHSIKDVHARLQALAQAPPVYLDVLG

In the case of C=C1c2ncc(F)cc2[C@H]2CCCN2c2ccn3ncc(c3n2)C(=O)N[C@@H]1C, the IC50 is reported as under 100 nM.
